The target in this assay is Aβ(1–40) fibrils (Homo sapiens, UniProt P05067). The assay can be described thus: radioligand displacement of [3H]Chrysamine-G, filtration assay. It is filed as binding. On the technique in general: Loss of bound radioactivity is the signal in a displacement assay; it reports binding, not function.
Aβ(1–40) fibrils, sequence (P05067 672-711): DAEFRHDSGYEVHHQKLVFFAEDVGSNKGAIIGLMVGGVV

A word on the Ki: it is the equilibrium dissociation constant of an inhibitor or competing ligand from its target. Low readings indicate tighter binding, high ones weaker binding. The compound `COc1cc(/C=C/c2ccc(/C=C/c3ccc(O)c(O)c3)cc2)ccc1O` [X:034-3-OMe1, (E,E)-1-(3’,4’-dihydroxystyryl)-4-(3’-methoxy-4’hydroxystyryl)benzene] returned a Ki of 21 nM.

`O=C(O)c1cc(/C=C/C=C/c2ccc(/C=C/C=C/c3ccc(O)c(C(=O)O)c3)cc2)ccc1O` [X:EE:B34, 1,4-bis[(1E,3E)-4-(3’-carboxy-4’-hydroxyphenyl)-1,3-butadienyl]-benzene]: the Ki was found to be 0.13 nM.

The values are drawn from paper PMC2812908 (Letters in drug design & discovery, 2009).
